# Test results as given in ChEMBL document CHEMBL1156829 (Proc Natl Acad Sci U S A, 2008).
# Assays:
# [1] = test system: Plasmodium falciparum; test: NOVARTIS: Inhibition of Plasmodium falciparum 3D7 (drug-susceptible) proliferation in erythrocyte-based infection assay; format: functional, organism-based; details: Plasmodium falciparum, 3D7
# [2] = test system: Plasmodium falciparum; test: NOVARTIS: Inhibition of Plasmodium falciparum W2 (drug-resistant) proliferation in erythrocyte-based infection assay; format: functional, organism-based; details: Plasmodium falciparum, W2; read-out: EC50
# [3] = NOVARTIS: Cytotoxicity against human hepatocellular carcinoma cell line (Huh7); format: toxicity, cell-based, Huh-7; details: Huh7 cells (hepatocellular carcinoma cell line)
Structure (SMILES),EC50 [1],EC50 [2],CC50 [3]
CC1CC(N(C(=O)c2ccc(Cl)cc2Cl)c2ccccc2)c2ccccc2N1C(=O)c1ccc(Cl)cc1 (stereo not given),2780 nM,2530 nM,> 100000 nM
Oc1nnc(SCc2nc3ccccc3s2)n1Cc1ccco1,> 1460 nM,268 nM,> 10000 nM
O=c1c2c([nH]c3ccccc13)CCCCCC2,2940 nM,2670 nM,> 100000 nM
COc1ccc2c(c1)[nH]c1c(N3CCN(C(c4ccccc4)c4ccccc4)CC3)ncnc12,339 nM,435 nM,16300 nM
CCC(C)Nc1nc(NC(C)CC)nc(N2CCCCCC2)n1 (stereo not given),479 nM,382 nM,14700 nM
Cc1ccc2[nH]c3c(NCCN(C(C)C)C(C)C)ncnc3c2c1,306 nM,420 nM,16300 nM
CCOC(=O)N1CCC(N2C(=O)c3ccccc3C2Nc2ccc(OCC)cc2)CC1 (stereo not given),> 12500 nM,2580 nM,> 100000 nM
c1ccc(-c2cc(N3CCN(c4ccccn4)CC3)nc(-c3ccccn3)n2)nc1,72.9 nM,76.7 nM,3030 nM
CN(C)CCn1cnc2sc3c(c2c1=O)CCC(NCc1cccc(Cl)c1)C3 (stereo not given),748 nM,479 nM,18900 nM
CCCCC(CC)C(=O)N(C)CCCNc1ccnc2cc(Cl)ccc12 (stereo not given),514 nM,233 nM,> 9260 nM
COc1ccc([N+](=O)[O-])cc1NC(=O)C(C)Nc1ccc(N(C)C)cc1 (stereo not given),343 nM,860 nM,34200 nM
O=C(NCc1ccccc1)C(c1ccc(F)cc1)N(Cc1ccco1)C(=O)c1cnccn1 (stereo not given),> 8940 nM,2520 nM,> 100000 nM
CCC(c1nc2ccccc2c(=O)n1-c1ccccc1OC)N(CCc1ccccc1)C(=O)c1ccc(C)cc1 (stereo not given),418 nM,174 nM,> 6690 nM
Nc1cccc(C(=O)Nc2ccc(Oc3cccc(Oc4ccc(NC(=O)c5cccc(N)c5)cc4)c3)cc2)c1,> 12000 nM,2550 nM,> 100000 nM
Cc1oc(-c2cccc(C(F)(F)F)c2)cc1C(=O)O,> 887 nM,267 nM,> 10000 nM
O=C(CCl)Nc1ccc(CN2CCCCC2)cc1,976 nM,911 nM,34100 nM
O=C(Cn1nc([N+](=O)[O-])nc1Br)NC1CCCCC1,4510 nM,2660 nM,> 100000 nM
COCCN1C(=O)c2ccccc2C(C(=O)Nc2cccc(C(F)(F)F)c2)C1c1cccs1 (stereo not given),3830 nM,2650 nM,> 100000 nM

Structure (SMILES),EC50 [1],EC50 [2],CC50 [3]
CCCC(CCC)C(=O)Nc1ccc2c(c1)N(C(=O)CCCl)c1ccccc1CC2,416 nM,2580 nM,> 100000 nM
Cc1cc(NCCCN(C)C)c2ccccc2n1,716 nM,1380 nM,53200 nM
COc1ccc(C2C(C(=O)c3ccccc3)=C(O)C(=O)N2c2cccc(Cl)c2)c(OC)c1 (stereo not given),> 12500 nM,2590 nM,> 100000 nM
Cc1ccc(C)n1-c1ccc(N(C)C)cc1,2930 nM,1330 nM,50900 nM
CCCCN1C(=O)N(c2ccccc2C)C(C)(O)CC1(C)C (stereo not given),> 1520 nM,> 261 nM,> 10000 nM
CCCCCCc1ccc(/C(C=[N+](C)C)=C\N(C)C)cc1,335 nM,260 nM,> 10000 nM
O=C(Nc1ccc2oc(-c3cccc4ccccc34)nc2c1)c1ccc([N+](=O)[O-])o1,5060 nM,2650 nM,> 100000 nM
O=C(NCCN(CCNc1ccnc2cc(Cl)ccc12)CCNc1ccnc2cc(Cl)ccc12)C1CCC1,207 nM,255 nM,> 10000 nM
CCOc1ccc2c(c1)cc(CN(C(C)=O)C1CCCC1)c1nnnn12,> 1250 nM,268 nM,> 10000 nM
O=C(O)CC/C(=C1/C=C(c2ccc(Cl)cc2)NC1=O)c1ccc(Cl)cc1,> 1650 nM,256 nM,> 10000 nM
O=C(Nc1ccc(-c2cn3cccnc3n2)cc1)c1ccccc1I,> 12500 nM,2620 nM,> 100000 nM
CCCCn1nccc1Nc1cc(C)c(C#N)c2nc3ccccc3n12,4420 nM,2610 nM,> 100000 nM
Cc1cccn2c(NCc3ccccc3)c(-c3ccccc3OC(=O)CCCCl)nc12,781 nM,253 nM,> 10000 nM
O=C(NCCCNC(=O)Nc1cccc(C2=NCCN2)c1)Nc1cccc(C2=NCCN2)c1,326 nM,256 nM,> 10000 nM
CCOC(=O)c1c[nH]c2c(CC)cccc2c1=O,1660 nM,2650 nM,> 100000 nM
C=CC1CN2CCC1CC2[C@@H](OC(=O)/C=C/c1ccc(Cl)cc1)c1ccnc2ccc(OC)cc12 (stereo not given in full),272 nM,252 nM,> 10000 nM
Cc1ccc(NC(=O)C2CC3c4ccccc4C2c2ccccc23)cc1 (stereo not given),> 12500 nM,2550 nM,> 100000 nM
